pEC50: −log10 of the molar value. “Also recorded” adds a separate entry of the source. Where two headings read alike, the source gives them in different places. Where a SMILES comes first, the peptide text is derived from it. [ ]: non-standard residue; d: D form. Aib = CC(C)(N)C(=O)O
Legend:
[1] = rat, in vivo
[2] = Body weight change in DIO Long Evans rats after 13 days continuous dosing by osmotic pump; conditions: for ED50 of weight loss: DIO rats; for common maximal weight loss response: over 13 days, fits constrained to share it (FIG. 9); for weight loss compared to vehicle control after 13 days: DIO LE rats, single agent
Description: Rats were 15-17 weeks old at the start of the study. The rats were housed 1 per cage and given ad libitum access to high fat diet (Harlan TD.95217, 4.3 kcal/g) and water, maintained on a 12 hr light/dark cycle from 5:00 AM to 5:00 PM at 21° C. and 50% relative humidity and allowed to acclimate for at least 10 days prior to the surgeries. Baseline fat mass and non-fat mass measurements were taken 3 days before the start of peptide infusion using a QMR instrument (Echo Medical Systems, Houston, TX). Body weight measurements were taken 2 times/week starting three days before the surgery. Rats were randomized according to their percent body fat mass and/or body weight into the various treatment groups (n=4-6 rats/group). […] On the day of surgery, rats were anesthetized under isoflurane and the dorsal skin surface was shaved and cleansed. Rats were injected SC with Flunexin (2.5 mg/kg). A 1-2 cm surgical incision was made between the scapulae. Using blunt dissection, a 2-3 cm subcutaneous tunnel was created into which the sterile, filled, mini-osmotic pump was introduced. The skin opening was closed with a skin staple. Each rat was implanted with either one or two osmotic pumps containing vehicle or peptide according to their treatment group. All the data are presented as mean±SEM. The data were analyzed in Excel and/or Prism (GraphPad Software, Inc., La Jolla, CA) using one-way ANOVA to compare each group to the appropriate control group.

in vivo = conditions: rat, iv
[3] = Stability in water or saline at 37° C. and room temperature, 30 days, LC/MS and HPLC purity; type: physicochemical
Excerpt: Samples were withdrawn at a regular interval for 30 days and analyzed by LC/MS and HPLC for determination of purity and mass of the degradation product.

human GLP-1R = human GLP-1R (Homo sapiens, UniProt P43220); experiment: Peptide-receptor mediated cAMP accumulation (LANCE Ultra cAMP) in CHO-K1 cells transfected with human GLP-1R; type: cell-based
Chain of human GLP-1R (P43220 24-463): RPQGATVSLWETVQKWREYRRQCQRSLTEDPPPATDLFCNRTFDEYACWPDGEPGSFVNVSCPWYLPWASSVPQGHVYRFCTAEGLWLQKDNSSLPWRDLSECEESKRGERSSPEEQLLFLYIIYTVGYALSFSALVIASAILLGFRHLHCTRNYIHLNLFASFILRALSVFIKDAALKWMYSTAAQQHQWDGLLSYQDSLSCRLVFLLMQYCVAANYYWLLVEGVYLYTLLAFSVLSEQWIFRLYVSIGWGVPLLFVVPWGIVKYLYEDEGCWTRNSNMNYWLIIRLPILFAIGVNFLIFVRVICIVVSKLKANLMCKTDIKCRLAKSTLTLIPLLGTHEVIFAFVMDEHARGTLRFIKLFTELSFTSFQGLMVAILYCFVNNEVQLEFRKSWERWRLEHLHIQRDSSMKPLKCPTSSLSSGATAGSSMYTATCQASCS

[4] = Solubility in water or saline at room temperature, visual inspection; type: physicochemical
Excerpt: Samples were visually inspected for clarity of the sample, any appearance of turbidity or haziness.

[5] = 3-hour subcutaneous infusion pharmacokinetics; conditions: male, rat, in vivo
Description: Peptides were formulated in sterile saline and administered as a 3-hour subcutaneous infusion to non-fasted male Wistar Han or Sprague-Dawley rats (n=3 per group) at a final dose of 0.3 or 0.1 mg/kg via a cannula placed into the subcutaneous space between the scapulae. […] Plasma was prepared by centrifugation and stored at −80° C. until analysis.
(§1) Protein Precipitation: All 96-well plates were coated with a blocking agent to mitigate non-specific binding of peptides. Plasma samples (75 uL) were added to a 96-well plate containing 200 uL of 2:1 ethanol:acetonitrile containing 0.1% TFA and mixed well via aspiration. Plates were capped, vortex-mixed and centrifuged. Supernatants (215 uL) were transferred to a clean 96-well plate, evaporated to dryness under nitrogen flow and then reconstituted in 75 μL of 20% acetonitrile in water containing 0.10% formic acid.
Solid-Phase Extraction: Samples were diluted 3-fold with 5% NH4OH (aq) and loaded onto an Oasis MAX microElution plate (Waters Corp, Milford, MA) that had been pre-conditioned with 200 uL each of methanol and 5% NH4OH (aq). The plate was washed with 200 uL 5% NH4OH (aq), followed by 200 uL 20% acetonitrile in water. […]
All calibration standards were prepared in control rat plasma containing K2EDTA and protease inhibitor cocktail. […] Peptides were quantified my monitoring one or more product ions produced from a multiply charged parent ion.

[6] = 3-hour intravenous infusion pharmacokinetics, peptide clearance (CL); conditions: male, rat, in vivo
Description: Peptides were formulated in sterile saline and administered as a 3-hour intravenous infusion to non-fasted male Wistar Han or Sprague-Dawley rats (n=3 per group) via jugular vein cannula at a final dose of 0.3 or 0.1 mg/kg. […] Plasma was prepared by centrifugation and stored at −80° C. until analysis.
as §1
Solid-Phase Extraction: Samples were diluted 3-fold with 5% NH4OH (aq) and loaded onto an Oasis MAX microElution plate (Waters Corp, Milford, MA) that had been pre-conditioned with 200 uL each of methanol and 5% NH4OH (aq). The plate was washed with 200 uL 5% NH4OH (aq), followed by 200 uL 20% acetonitrile in water. […] Samples were reconstituted in 80 uL 0.1% formic acid in water.
All calibration standards were prepared in control rat plasma containing K2EDTA and protease inhibitor cocktail. […] Samples were injected onto a 2.1×50 mm reverse phase C18 analytical column, typically a Waters ACQUITY UPLC™ HSS T3, 1.8 μm (Waters Corporation, Milford, MA) or similar. […] Typical flow rates were 600 L/min. The column temperature was held constant at 40 or 45° C. Peptides were quantified my monitoring one or more product ions produced from a multiply charged parent ion.

[7] = Clearance at intravenous infusion rate of 10 mcg/kg/hr; conditions: for clearance: rat, in vivo, 10 mcg/kg/hr
[8] = Steady state plasma concentrations of glucagon analogs given subcutaneously by osmotic minipump; type: in vivo, rat
[9] = Clearance following intravenous infusion, acylated peptides (1-hour infusion, 0.033 mg/kg); conditions: rat, in vivo, Table 8, male rats, unit inferred
human GCGR = human GCGR (Homo sapiens, UniProt P47871); experiment: Peptide-receptor mediated cAMP accumulation (LANCE Ultra cAMP) in CHO-K1 cells transfected with human GCGR; type: cell-based
Chain of human GCGR (P47871 26-477): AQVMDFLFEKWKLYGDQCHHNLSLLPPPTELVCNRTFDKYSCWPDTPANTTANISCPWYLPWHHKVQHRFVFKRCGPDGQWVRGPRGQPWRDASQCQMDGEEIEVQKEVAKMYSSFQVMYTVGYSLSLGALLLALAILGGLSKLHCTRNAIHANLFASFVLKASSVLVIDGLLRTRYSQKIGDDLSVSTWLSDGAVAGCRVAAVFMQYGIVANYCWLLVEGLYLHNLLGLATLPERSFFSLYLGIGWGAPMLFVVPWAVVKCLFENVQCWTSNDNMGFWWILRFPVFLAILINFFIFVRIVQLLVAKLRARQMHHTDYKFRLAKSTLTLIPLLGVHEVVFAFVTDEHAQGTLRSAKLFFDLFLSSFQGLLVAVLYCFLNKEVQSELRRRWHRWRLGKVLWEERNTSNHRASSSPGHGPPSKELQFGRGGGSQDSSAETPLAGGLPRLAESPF

[10] = Body weight change in diet-induced obese rats over 27 days, Compound A1 with or without exenatide; type: in vivo, rat
hGIPR = molecular target: T1, hGIPR (Homo sapiens, UniProt P48546); experiment: Human in vitro potency (pEC50) at hGIPR; type: cell-based
T1 sequence (P48546 22-466): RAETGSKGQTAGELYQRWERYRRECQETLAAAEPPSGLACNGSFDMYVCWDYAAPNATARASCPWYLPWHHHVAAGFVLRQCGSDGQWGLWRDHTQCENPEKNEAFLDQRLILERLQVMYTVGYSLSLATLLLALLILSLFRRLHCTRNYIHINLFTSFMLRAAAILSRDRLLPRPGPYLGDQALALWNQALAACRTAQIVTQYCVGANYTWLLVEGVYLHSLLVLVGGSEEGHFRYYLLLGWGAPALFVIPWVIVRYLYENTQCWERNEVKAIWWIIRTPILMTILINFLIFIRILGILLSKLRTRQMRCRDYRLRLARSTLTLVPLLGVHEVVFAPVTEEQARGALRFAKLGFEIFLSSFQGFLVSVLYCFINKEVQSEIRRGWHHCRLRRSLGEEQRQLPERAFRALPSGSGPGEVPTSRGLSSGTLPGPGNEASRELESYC

[11] = 13 days infusion, fits sharing vehicle response and common maximum (FIG. 9)
[12] = hGLP1 pEC50 (cAMP mean (n = 3): 11 point curve starting at 1 nM, Table 3)
[13] = hGLP1 pEC50 (cAMP) mean (n = 9): 11 point curve starting at 500 uM, Table 2A

CC(C)C[C@H](NC(=O)[C@H](Cc1ccc(O)cc1)NC(=O)[C@H](CCCCN)NC(=O)[C@H](CO)NC(=O)[C@H](Cc1ccc(O)cc1)NC(=O)[C@H](CC(=O)O)NC(=O)[C@H](CO)NC(=O)[C@@H](NC(=O)[C@H](Cc1ccccc1)NC(=O)[C@@H](NC(=O)CNC(=O)[C@H](CCC(N)=O)NC(=O)[C@H](CO)NC(=O)[C@@H](N)Cc1ccc(O)cc1)[C@@H](C)O)[C@@H](C)O)C(=O)N[C@@H](CC(=O)O)C(=O)N[C@@H](C)C(=O)N[C@@H](C)C(=O)N[C@@H](CCCNC(=N)N)C(=O)N[C@@H](C)C(=O)N[C@@H](CCC(N)=O)C(=O)N[C@@H](CCC(=O)O)C(=O)N[C@@H](Cc1ccccc1)C(=O)N[C@H](C(=O)N[C@@H](CCCCN)C(=O)N[C@@H](Cc1c[nH]c2ccccc12)C(=O)N[C@@H](CC(C)C)C(=O)N[C@@H](CCC(=O)O)C(=O)N[C@@H](CC(=O)O)C(=O)N[C@@H](CCC(=O)O)C(=O)N1CCC[C@H]1C(=O)N[C@@H](CCCCN)C(=O)N[C@@H](CO)C(=O)N[C@@H](CCCCN)C(=O)N[C@@H](CO)C(=O)N1CCC[C@H]1C(=O)N1CCC[C@H]1C(=O)N1CCC[C@H]1C(=O)N[C@@H](CO)C(N)=O)C(C)C [Compound A3] (H-YSQGTFTSDYSKYLDAARAQEFVKWLEDEPKSKSPPPS-NH2; N-terminus assumed)
mode of clearance [1]: cleared from plasma via glomerular filtration | ED50 of weight loss [2, 11]: 535 µg/kg/day | common maximal weight loss response [2]: 27.2% | clearance (in vivo): 10.7 mL/min/kg | Stability 1 mg/ml in water at 37 degC [3]: >64% | pEC50 (human GLP-1R; [12]): 6.70 | pEC50 (human GLP-1R; [13]): 6.70 | CL (FIGURE 2B): 12.5 ± 1.6 mL/min/kg | solubility ([4]; Solubility in water mg/ml): > 200 mg/mL

CC(C)C[C@H](NC(=O)[C@H](Cc1ccc(O)cc1)NC(=O)[C@H](CCCCN)NC(=O)[C@H](CO)NC(=O)[C@H](Cc1ccc(O)cc1)NC(=O)[C@H](CC(=O)O)NC(=O)[C@H](CO)NC(=O)[C@@H](NC(=O)[C@H](Cc1ccccc1)NC(=O)[C@@H](NC(=O)CNC(=O)[C@H](Cc1c[nH]cn1)NC(=O)[C@H](CO)NC(=O)[C@@H](N)Cc1ccc(O)cc1)[C@@H](C)O)[C@@H](C)O)C(=O)N[C@@H](CC(=O)O)C(=O)NC(C)(C)C(=O)N[C@@H](CCCCN)C(=O)N[C@@H](Cc1ccc(O)cc1)C(=O)N[C@@H](C)C(=O)N[C@@H](CCC(N)=O)C(=O)N[C@@H](CCC(=O)O)C(=O)N[C@@H](Cc1ccccc1)C(=O)N[C@H](C(=O)NC(C)(C)C(=O)N[C@@H](Cc1c[nH]c2ccccc12)C(=O)N[C@@H](CC(C)C)C(=O)N[C@@H](CCC(=O)O)C(=O)N[C@@H](CC(=O)O)C(=O)N[C@@H](CCC(=O)O)C(=O)N1CCC[C@H]1C(=O)N[C@@H](CO)C(=O)N[C@@H](CO)C(=O)NCC(=O)N[C@@H](C)C(=O)N1CCC[C@H]1C(=O)N1CCC[C@H]1C(=O)N1CCC[C@H]1C(=O)N[C@@H](CO)C(=O)O)C(C)C [Compound A1] (H-YSHGTFTSDYSKYLD[Aib]KYAQEFV[Aib]WLEDEPSSGAPPPS-OH; N-terminus assumed)
bioavailability [5]: 74% | clearance [6]: 11.5 mL/min/kg | clearance compared with exenatide and glucagon ([7]; FIG. 7): less than that of exenatide and glucagon | mode of clearance ([7]; FIG. 7, Table 5 values close to GFR): cleared from plasma via glomerular filtration | clearance ([7]; Rat PK Cl, Table 6, unit inferred): 11.5 mL/min/kg | clearance ([7]; iv, CL mL/min/kg, Table 5, intravenous infusion rate 10 mcg/kg/hr): 10.6 mL/min/kg | mode of clearance ([8]; FIG. 6, steady state plasma concentration vs inulin/GFR): consistent with being via glomerular filtration; also recorded: cleared mainly by glomerular filtration | subcutaneous bioavailability ([8]; sc osmotic minipump, rat): high | weight loss compared to vehicle control after 13 days ([2]; 0.01 mg/kg/day): 5.6% | weight loss compared to vehicle control after 13 days ([2]; 0.03 mg/kg/day): 3.5% | weight loss compared to vehicle control after 13 days ([2]; 0.1 mg/kg/day): 10% | weight loss compared to vehicle control after 13 days ([2]; 0.3 mg/kg/day): 22.6% | ED50 of weight loss [2, 11]: 51 µg/kg/day | ED50 of weight loss ([2]; 13 days sc minipump, 4-parameter sigmoid fit of each agent (FIG. 8; Table 6 prints no unit)): 65.7 µg/kg/day | % Weight loss Single ([2]; Table 6, rat in vivo): 26% | in vivo potency compared with exenatide ([2]; administered alone): almost as potent in vivo as exenatide | maximal weight loss relative to exenatide ([2]; greater, administered alone): 2.3 fold | common maximal weight loss response [2]: 27.2% | clearance ([9]; read-out: CL (IV/SubQ)): 11.5 mL/min/kg | half-life ([9]; read-out: T ½ (converted)): 49.8 min | Stability 1 mg/ml in water at 37 degC ([3]; Table 3, % printed only in cells of A1-A6): >71% | Physiochemical Properties Stability ([3]; Table 6): >95% | activation profile at the human GLP-1 receptor (GLP-1R) (human GLP-1R; FIG. 1B): inactive on GLP-1R | pEC50 (human GLP-1R; GLP-1R pEC50, Table 7, GLP-1R): < 6.00 | pEC50 (human GLP-1R; Human in vitro Potency (pEC50) hGLP-1R, Table 6): 5.20 | pEC50 (human GLP-1R; [12]): 5.20 | pEC50 (human GLP-1R; [13]): 5.20 | solubility ([4]; Table 3, room temperature, read-out: Solubility in water): > 200 mg/mL | Physiochemical Properties Solubility ([4]; Table 6, unit not given): >200 | pEC50 (human GCGR): 10.60 | activation profile at the human glucagon receptor (GCGR) (human GCGR; FIG. 1A): nearly equipotent on GCGR | interaction of the combination with exenatide on weight loss ([10]; 27 days, Compound A1 24 and 50 mcg/kg/day with exenatide 10 mcg/kg/day): supra-additive (synergistic) effect | maximal weight loss response, combination with exenatide ([10]; 27 days, Compound A1 with exenatide 10 mcg/kg/day): ~47% | increase in body weight over 27 days ([10]; DIO rats, Compound A1 alone 7.5 mcg/kg/day): ~4% | increase in body weight over 27 days ([10]; DIO rats, Compound A1 alone 24 mcg/kg/day): ~4% | decrease in body weight over 27 days ([10]; DIO rats, Compound A1 alone, highest infusion rate (50 mcg/kg/day)): 16.8% | pEC50 (hGIPR): < 5.00
